Values joined by “and” are separate entries in the source; they are usually repeats but may differ in a detail not shown here. Equal entries are not always repeated.
Key:
[1] = target: T1, catalytic domain (JH1, amino acids 808-1132) of human JAK2 (Homo sapiens, UniProt O60674); assay: JAK2 HTRF Enzyme Activity Assay; assay type: biochemical; details: ATP 30 μM; read-out: ENZ 30UMATP IC50
T1 construct: catalytic domain (JH1, amino acids 808-1132) of human JAK2; His (N); purchased BPS Bioscience 40450; host or cells: baculovirus expression system
T1 sequence (O60674 808-1132): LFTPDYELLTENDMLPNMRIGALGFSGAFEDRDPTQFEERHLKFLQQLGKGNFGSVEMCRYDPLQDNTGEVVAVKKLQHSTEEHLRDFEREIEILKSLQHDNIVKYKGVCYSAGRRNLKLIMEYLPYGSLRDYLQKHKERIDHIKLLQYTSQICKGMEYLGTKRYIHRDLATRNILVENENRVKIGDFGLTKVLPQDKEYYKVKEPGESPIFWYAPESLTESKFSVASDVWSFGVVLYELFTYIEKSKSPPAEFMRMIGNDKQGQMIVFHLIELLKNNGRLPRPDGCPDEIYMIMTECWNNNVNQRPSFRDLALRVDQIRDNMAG
Method: Example D. JAK2 HTRF Enzyme Activity Assay
JAK2 enzyme activity assays utilize catalytic domain (JH1, amino acids 808-1132) of human JAK2 expressed as N-terminal His-tagged protein in a baculovirus expression system (BPS Bioscience, Catalog #40450). The assays was conducted in black 384-well polystyrene plates in a final reaction volume of 20 μL. JAK2 (0.015 nM) was incubated with compounds (100 nL serially diluted in DMSO) in the presence of ATP (30 μM or 1 mM) and 500 nM Biotin-labeled EQEDEPEGDYFEWLE (SEQ ID NO.: 1) peptide (BioSource International, custom synthesis) in assay buffer (50 mM Tris, pH=7.5, 10 mM MgCl2, 0.01% Brij-35, 0.1% BSA, 1 mM EGTA, 5% Glycerol and 5 mM DTT) for 60 minutes at 25° C. The reactions were stopped by the addition of 10 μL of detection buffer (50 mM Tris, pH 7.8, 0.5 mg/mL BSA, 150 mM NaCl), supplemented with EDTA, LANCE Eu-W1024 anti-phosphotyrosine (PY20), (PerkinElmer, Catalog #AD0067) and Streptavidin SureLight APC (PerkinElmer Catalog #CR130-100), for a final concentration of 15 mM, 1.5 nM and 75 nM, respectively. HTRF signals were read after 30 minutes incubation at room temperature on a PHERAstar FS plate reader (BMG LABTECH). Data was analyzed with IDBS XLfit and GraphPad Prism 5.0 software using a four parameter dose response curve to determine IC50 for each compound. The compounds of the disclosure were tested in one or more of the assays described in Examples A-D, and the resulting data are shown in Table A.

[2] = target: T2, pseudo-kinase domain (JH2, amino-acids 536-812) of human Wild Type JAK2 (Homo sapiens, UniProt O60674, F794H/W659A/W777A); assay: JAK2 LanthaScreen JH2-WT Binding Assay; details: 50 nM tracer, read-out: JH2BIND_WT IC50
T2 construct: pseudo-kinase domain (JH2, amino-acids 536-812 with 3 surface mutations W659A, W777A, F794H); His (C); purchased BPS Bioscience 79463; host or cells: baculovirus expression system
T2 sequence (O60674 536-812 W659A/W777A/F794H): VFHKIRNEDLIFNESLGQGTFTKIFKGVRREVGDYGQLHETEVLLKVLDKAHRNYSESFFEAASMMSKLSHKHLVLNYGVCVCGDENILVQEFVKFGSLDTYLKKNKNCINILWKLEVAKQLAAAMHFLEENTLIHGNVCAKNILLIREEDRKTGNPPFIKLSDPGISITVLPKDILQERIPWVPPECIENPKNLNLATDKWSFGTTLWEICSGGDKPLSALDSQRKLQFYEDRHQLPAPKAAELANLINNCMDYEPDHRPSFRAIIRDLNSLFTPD
Method: Example B. JAK2 LanthaScreen JH2-WT Binding Assay
(§1) JAK2 JH2-WT binding assay utilizes pseudo-kinase domain (JH2, amino-acids 536-812 with 3 surface mutations W659A, W777A, F794H) of human Wild Type JAK2 expressed as C-terminal His-Avi-tagged, biotinylated protein in a baculovirus expression system (BPS Bioscience, Catalog #79463). The assay was conducted in black 384-well polystyrene plates in a final reaction volume of 20 μL. JAK2 JH2-WT (0.145 nM) was incubated with compounds (100 nL serially diluted in DMSO) in the presence of 50 nM Fluorescent JAK2-JH2 Tracer (MedChem Express Catalog #HY-102055) and 0.25 nM Streptavidin-Tb cryptate (Cisbio Part #610SATLB) in assay buffer (50 mM Tris, pH=7.5, 10 mM MgCl2, 0.01% Brij-35, 0.1% BSA, 1 mM EGTA, 5% Glycerol and 5 mM DTT). Non-specific binding was accessed in the presence of 2 mM ATP. After incubation for 1 hour at 25° C., LanthaScreen signals were read on a PHERAstar FS plate reader (BMG LABTECH). Data was analyzed with IDBS XLfit and GraphPad Prism 5.0 software using a four parameter dose response curve to determine IC50 for each compound.

[3] = target: T3, pseudo-kinase domain (JH2, amino-acids 536-812) of human V617F mutant JAK2 (Homo sapiens, UniProt O60674, F794H/V617F/W659A/W777A); assay: JAK2 LanthaScreen JH2-V617F Binding Assay; details: 50 nM tracer, read-out: JH2BINDING—V617F IC50
T3 construct: pseudo-kinase domain (JH2, amino-acids 536-812 with 3 surface mutations W659A, W777A, F794H); His (C); purchased BPS Bioscience 79498; host or cells: baculovirus expression system
T3 sequence (O60674 536-812 V617F/W659A/W777A/F794H): as the sequence (O60674 536-812 W659A/W777A/F794H) above, with V82F counted along it
Method: Example C. JAK2 LanthaScreen JH2-V617F Binding Assay
as §1, with “JH2-V617F” for “JH2-WT”, “V617F mutant” for “Wild Type”, “#79498).” for “#79463).”, “JH2-V617F (0.26” for “JH2-WT (0.145”

[4] = target: T4, catalytic domain (JH1, amino acids 826-1132) of human JAK2 (Homo sapiens, UniProt O60674); assay: JAK2 LanthaScreen JH1 binding assay; details: JAK2 JH1, 50 nM tracer; read-out: JH1BIND IC50
T4 construct: catalytic domain (JH1, amino acids 826-1132) of human JAK2; FLAG (N); purchased Carna Biosciences 08-445-20N; host or cells: baculovirus expression system
T4 sequence (O60674 826-1132): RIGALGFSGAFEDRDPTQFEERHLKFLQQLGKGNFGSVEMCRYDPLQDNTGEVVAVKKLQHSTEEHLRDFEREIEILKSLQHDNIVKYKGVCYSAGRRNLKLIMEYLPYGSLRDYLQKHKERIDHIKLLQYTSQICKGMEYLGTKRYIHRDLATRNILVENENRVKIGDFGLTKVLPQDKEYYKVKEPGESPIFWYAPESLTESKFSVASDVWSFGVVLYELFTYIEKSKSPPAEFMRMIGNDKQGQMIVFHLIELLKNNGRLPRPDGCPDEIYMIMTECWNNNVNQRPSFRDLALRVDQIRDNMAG
Method: Example A. JAK2 LanthaScreen […] Binding Assay
JAK2 JH1 binding assay utilizes catalytic domain (JH1, amino acids 826-1132) of human JAK2 expressed as N-terminal FLAG-tagged, biotinylated protein in a baculovirus expression system (Carna Biosciences, Product #08-445-20N). The assay was conducted in black 384-well polystyrene plates in a final reaction volume of 20 μL. JAK2 JH1 (1.5 nM) was incubated with compounds (100 nL serially diluted in DMSO) in the presence of 50 nM fluorescent JAK2-JH1 tracer and 0.5 nM Streptavidin-Tb cryptate (Cisbio Part #610SATLB) in assay buffer (50 mM Tris, pH=7.5, 10 mM MgCl2, 0.01% Brij-35, 0.1% BSA, 1 mM EGTA, […] and 5 mM DTT). Non-specific binding was accessed in the presence of 2 mM ATP. After incubation for 2 hours at 25° C., LanthaScreen signals were read on a PHERAstar FS plate reader (BMG LABTECH).
Data was analyzed with IDBS XLfit and GraphPad Prism 5.0 software using a four parameter dose response curve to determine IC50 for each compound.

[5] = from [2H]C([2H])([2H])n1c(=O)n([C@H]2CC[C@@](CC=C)(NC(=O)[C@H]3C[C@H]3F)CC2)c2c3c(-c4ccc(OCCC=C)cc4)cn(S(=O)(=O)c4ccccc4)c3ncc21, rcm bond, Grubbs catalyst 2nd generation, dichloromethane, 19.0 mM, 40.0 °C

Q: With `[2H]C([2H])([2H])n1c(=O)n2c3c4c(c(-c5cnn(CC(F)F)c5)[nH]c4ncc31)-c1ccc(cc1)OCC/C=C/C[C@]1(NC(=O)[C@H]3C[C@H]3F)CC[C@@H]2CC1` [Example 11, (1R,2R)-N-((3^1S,3^4s,E)-2^7-(1-(2,2-difluoroethyl)-1H-pyrazol-4-yl)-2^3-(methyl-d3)-2^2-oxo-2^1,2^2,2^3,2^6-tetrahydro-9-oxa-2(8,1)-imidazo[4,5-d]pyrrolo[2,3-b]pyridina-1(1,4)-benzena-3(1,4)-cyclohexanacyclononaphan-5-en-3^4-yl)-2-fluorocyclopropane-1-carboxamide] as the compound, how does the IC50 [1] read?
A: > 1000 nM

Q: What about the IC50 [2] of the same compound?
A: ≤ 10 nM

Q: And the IC50 [3]?
A: ≤ 10 nM

Q: What about the IC50 [4] of the same compound?
A: 500 to 1000 nM

Q: For `[2H]C([2H])([2H])n1c(=O)n2c3c4c(c(-c5cn(C)nc5OC)[nH]c4ncc31)-c1ccc(cc1)C1(/C=C/C[C@]3(NC(=O)C4CC4)CC[C@@H]2CC3)CC1` [Example 6, N-((1′s,4′s,E)-7′-(3-Methoxy-1-methyl-1H-pyrazol-4-yl)-3′-(methyl-d3)-2′-oxospiro[cyclopropane-1,7′-2(8,1)-imidazo[4,5-d]pyrrolo[2,3-b]pyridina-1(1,4)-benzena-3(1,4)-cyclohexanacycloheptaphanen]-5′-en-4′-yl)cyclopropanecarboxamide], which IC50 [1] is on record?
A: > 1000 nM

Q: What about the IC50 [2] of the same compound?
A: ≤ 10 nM

Q: And the IC50 [3]?
A: ≤ 10 nM

Q: What about the IC50 [4] of the same compound?
A: > 1000 nM

Q: Which results are given for `[2H]C([2H])([2H])n1c(=O)n2c3c4c(c(-c5cn(CC)nc5F)[nH]c4ncc31)-c1ccc(cc1)OCC/C=C/C[C@]1(NC(=O)[C@H]3C[C@H]3F)CC[C@@H]2CC1` [Example 12, (1R,2R)-N-((3^1S,3^4s,E)-2^7-(1-ethyl-3-fluoro-1H-pyrazol-4-yl)-2^3-(methyl-d3)-2^2-oxo-2^1,2^2,2^3,2^6-tetrahydro-9-oxa-2(8,1)-imidazo[4,5-d]pyrrolo[2,3-b]pyridina-1(1,4)-benzena-3(1,4)-cyclohexanacyclononaphan-5-en-3^4-yl)-2-fluorocyclopropane-1-carboxamide]?
A: IC50 [1]: 500 to 1000 nM and > 1000 nM; IC50 [2]: ≤ 10 nM; IC50 [3]: ≤ 10 nM; IC50 [4]: 500 to 1000 nM and > 1000 nM

Q: What does the source list for `[2H]C([2H])([2H])n1c(=O)n2c3c4c(c(-c5cnn(C)c5)[nH]c4ncc31)-c1ccc(cc1)OCC/C=C/C[C@]1(NC(=O)[C@H]3C[C@H]3F)CC[C@@H]2CC1` [Example 10, (1R,2R)-2-fluoro-N-((3^1S,3^4s,E)-2^3-(methyl-d3)-2^7-(1-methyl-1H-pyrazol-4-yl)-2^2-oxo-2^1,2^2,2^3,2^6-tetrahydro-9-oxa-2(8,1)-imidazo[4,5-d]pyrrolo[2,3-b]pyridina-1(1,4)-benzena-3(1,4)-cyclohexanacyclononaphan-5-en-3^4-yl)cyclopropane-1-carboxamide]?
A: IC50 [1]: 500 to 1000 nM; IC50 [2]: ≤ 10 nM; IC50 [3]: ≤ 10 nM; IC50 [4]: 500 to 1000 nM

Q: What does the source list for `[2H]C([2H])([2H])n1c(=O)n2c3c4c(c(-c5cn(C)nc5OC)[nH]c4ncc31)-c1ccc(cc1)OC/C=C/C[C@]1(NC(=O)C3CC3)CC[C@@H]2CC1` [Example 1, N-((3^1s,3^4s,E)-2^7-(3-Methoxy-1-methyl-1H-pyrazol-4-yl)-2^3-(methyl-d3)-2^2-oxo-2^1,2^2,2^3,2^6-tetrahydro-8-oxa-2(8,1)-imidazo[4,5-d]pyrrolo[2,3-b]pyridina-1(1,4)-benzena-3(1,4)-cyclohexanacyclooctaphan-5-en-3^4-yl)cyclopropanecarboxamide]?
A: IC50 [1]: > 1000 nM; IC50 [2]: ≤ 10 nM; IC50 [3]: ≤ 10 nM; IC50 [4]: > 1000 nM

Q: With `[2H]C([2H])([2H])n1c(=O)n2c3c4c(cn(S(=O)(=O)c5ccccc5)c4ncc31)-c1ccc(cc1)OCCC=CC[C@]1(NC(=O)[C@H]3C[C@H]3F)CC[C@@H]2CC1` as the compound, how does the ring closure, yield of all isomers [5] read?
A: 98%

Q: For `[2H]C([2H])([2H])n1c(=O)n2c3c4c(c(-c5cn(CC)nc5F)[nH]c4ncc31)-c1ccc(cc1)OCCC(O)CC[C@]1(NC(=O)[C@H]3C[C@H]3F)CC[C@@H]2CC1` (stereo partly drawn) [Example 9, (1R,2R)—N-((3^1S,3^4s)-2^7-(1-Ethyl-3-fluoro-1H-pyrazol-4-yl)-6-hydroxy-2^3-(methyl-d)-2^2-oxo-2^1,2^2,2^3,2^6-tetrahydro-9-oxa-2(8,1)-imidazo[4,5-d]pyrrolo[2,3-b]pyridina-1(1,4)-benzena-3(1,4)-cyclohexanacyclononaphane-3^4-yl)-2-fluorocyclopropane-1-carboxamide], which IC50 [1] is on record?
A: > 1000 nM

Q: What about the IC50 [2] of the same compound?
A: ≤ 10 nM

Q: What about the IC50 [3] of the same compound?
A: ≤ 10 nM

Q: And the IC50 [4]?
A: 500 to 1000 nM

From patent US20240376124A1, “Macrocyclic Kinase Inhibitors” (Incyte Corporation, priority 2023, published 2024)
